Patent US5776946A, “Peripheral benzodiazepine receptor ligands as antiinflammatory agents” (priority 1995, dated 1998)
Where “and” joins values, the source holds several entries; their conditions need not be identical. Equal values may be shown once. Read-outs that look alike come from different tables or passages of the source.

Assays:
[1] = molecular target: T1, peripheral benzodiazepine receptors, human Alzheimer and control cortical tissue (Homo sapiens, UniProt P30536); test: Specific high affinity binding of PK 11195 to Alzheimer and control cortical tissue; details: PK 11195 at 3 nM
T1 construct: from tissue; host or cells: human cortical brain tissue, Alzheimer and neurologically normal control
T1 sequence (P30536 whole entry): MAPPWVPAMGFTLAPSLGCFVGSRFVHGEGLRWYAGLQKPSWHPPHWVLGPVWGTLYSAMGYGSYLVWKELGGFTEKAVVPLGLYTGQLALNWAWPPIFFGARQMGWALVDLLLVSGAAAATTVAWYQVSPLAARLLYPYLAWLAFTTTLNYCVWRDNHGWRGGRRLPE
From the text: The standard method of Schoemaker et al., 1983 was employed.

[2] = tested on: MRL-lpr mice; test: CFA-induced disease in MRL-lpr mice, joint histopathology; assay type: in vivo, mouse; details: for Severity of Disease Sign Total / Severity of Disease Sign (1) subsynovial inflammation / Severity of Disease Sign (2) synovial hyperplasia / Severity of Disease Sign (3) pannus formation / Severity of Disease Sign (4) bone destruction: day 30, mean ± S.D.; for Severity of Disease Sign (1) subsynovial inflammation / Severity of Disease Sign (2) synovial hyperplasia / Severity of Disease Sign (3) pannus formation / Severity of Disease Sign (4) bone destruction: scale 0-4
From the text: MRL-lpr mice are a widely studied strain which spontaneously develop a particularly severe autoimmune disorder. Pathologies that are found in a variety of human idiopathic inflammatory and autoimmune diseases are reproduced in these animals. They are therefore considered to be an outstanding model for such individual human diseases, although the pathology represents a combination of several of them. They are regarded as the best animal model for rheumatoid arthritis (Koopman and Gay, 1988) , systemic lupus erythematous (Bartlett et al., 1988)., and Sjogren's syndrome (Hayashi et al., 1994). […] They develop behavioral and neurological deficits (Sakic et al., 1993), as well as evidence of CNS inflammation (Vogelweid et al., 1991) which is seen in isolation in such diseases as Alzheimer type dementia and multiple sclerosis, but is also part of the syndrome in systemic lupus erythematosus and Sjogren's syndrome. The model is considered to be a particularly demanding one for screening antiinflammatory agents because of the severity and comprehensiveness of the disease pathology. […] The lesions include synovial inflammation, synovial cell proliferation, pannus formation, and articular cartilage erosion and bone destruction. Only powerful antiinflammatory agents will inhibit the devastating changes that accompany this genetic disorder. Mice of the MRL-lpr strain spontaneously develop a mild form of the disease at several months of age. The onset can be accelerated by injection of complete Freund's adjuvant (CFA) supplemented to 10 mg/ml with heat-inactivated M. tuberculosis, at 13-14 weeks of age, with 67-82% of animals becoming affected within 1 month (Ratkay et al., 1994; Ratkay et al., 1993).
Daily injections were continued until day 14. The animals were sacrificed at day 30 and joint histopathology assessed. […] The results were compared with those in littermates receiving CFA only (N=7). Following sacrifice, animals were evaluated for subsynovial inflammation, synovial hyperplasia, cartilage destruction and pannus formation, and bone destruction.
^A The histopathological changes were assessed on a scale of 0 (no
change) to 4 (severe change) for the following indices: (1) subsynovial
inflammation; (2) synovial hyperplasia; (3) pannus formation; and (4) bon
destruction. For methods see Ratkay et al., 1994.

[3] = tested on: cultured rat peritoneal macrophages; test: Respiratory burst in cultured rat peritoneal macrophages activated by opsonized zymosan; assay type: cell-based; details: Peritoneal macrophage; for activity at 1000 µM: 10^-3 M
From the text: Its main function is to protect the body from hostile invaders by generating superoxide radicals, but inappropriate activation can damage host tissue. Oxidative stress is believed to be one of the more harmful concomitants of inflammation. The respiratory burst system can be activated in cultured peritoneal macrophages in multiple ways, including exposure to zymosan particles opsonized by complement proteins (Klegeris and McGeer, 1994).
For methods see Klegeris and McGeer, 1994.

[4] = molecular target: T2, peripheral benzodiazepine receptors, mouse peritoneal macrophages (Mus musculus, UniProt P50637); details: read-out: affinity; cited from earlier work
T2 construct: host or cells: mouse peritoneal macrophages (Zavala and Lenfant, 1987b)
T2 sequence (P50637 whole entry): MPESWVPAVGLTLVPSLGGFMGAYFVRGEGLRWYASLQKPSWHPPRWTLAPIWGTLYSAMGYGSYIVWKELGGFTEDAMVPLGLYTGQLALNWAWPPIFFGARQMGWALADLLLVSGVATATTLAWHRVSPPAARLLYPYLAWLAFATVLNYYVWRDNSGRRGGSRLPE

[5] = molecular target: T3, peripheral benzodiazepine receptors in brain (Homo sapiens, UniProt P30536); details: read-out: ability to displace bound PK 11195 from peripheral benzodiazepine receptors (Ki); cited from earlier work
T3 construct: host or cells: brain (Doble et al., 1987)
T3 sequence (P30536 whole entry): as the sequence (P30536 whole entry) above

[6] = molecular target: T1, peripheral benzodiazepine receptors, human Alzheimer and control cortical tissue; details: McGeer et al., 1988; cited from earlier work
[7] = read-out: Respiratory burst, Percent of Control (± S.E.), substance given After OZ
[8] = read-out: Respiratory burst, Percent of Control (± S.E.), substance given Before OZ
[9] = after opsonized zymosan, read-out: Respiratory burst, Percent of Control (± S.E.), substance given After OZ
[10] = before opsonized zymosan, read-out: Respiratory burst, Percent of Control (± S.E.), substance given Before OZ
[11] = 10^-4 M, after opsonized zymosan, read-out: Respiratory burst, Percent of Control (± S.E.), substance given After OZ
[12] = 10^-4 M, before opsonized zymosan, read-out: Respiratory burst, Percent of Control (± S.E.), substance given Before OZ
[13] = 10^-5 M, before opsonized zymosan, read-out: Respiratory burst, Percent of Control (± S.E.), substance given Before OZ

SMILES: CCC(C)N(C)C(=O)c1cc2ccccc2c(-c2ccccc2Cl)n1 (stereo not drawn) [PK 11195, 1-(2-chlorophenyl)-N-methyl-N-(1-methylpropyl)-3-isoquinolinecarboxamide]
- Specific High Affinity Binding, Alzheimer cortical tissue, Means ± S.E. ([1]; Alzheimer): 449 ± 25 fentamoles/mg protein
- Specific High Affinity Binding, Alzheimer cortical tissue, individual cases ([1]; Alzheimer): 480 fentamoles/mg protein and 585 fentamoles/mg protein and 400 fentamoles/mg protein and 450 fentamoles/mg protein and 395 fentamoles/mg protein and 408 fentamoles/mg protein and 422 fentamoles/mg protein
- Specific High Affinity Binding, Control cortical tissue, Means ± S.E. ([1]; Control): 165 ± 25 fentamoles/mg protein
- Specific High Affinity Binding, Control cortical tissue, individual cases ([1]; Control): 201 fentamoles/mg protein and 94 fentamoles/mg protein and 265 fentamoles/mg protein and 118 fentamoles/mg protein and 141 fentamoles/mg protein and 111 fentamoles/mg protein and 222 fentamoles/mg protein
- Severity of Disease Sign Total ([2]; 0.1 mg/kg s.c. daily to day 14): 1.40 ± 0.48
- Severity of Disease Sign (1) subsynovial inflammation ([2]; 0.1 mg/kg s.c. daily to day 14): 0.70 ± 0.26
- Severity of Disease Sign (2) synovial hyperplasia ([2]; 0.1 mg/kg s.c. daily to day 14): 0.70 ± 0.26
- Severity of Disease Sign (3) pannus formation ([2]; 0.1 mg/kg s.c. daily to day 14): 0.00 ± 0.00
- Severity of Disease Sign (4) bone destruction ([2]; 0.1 mg/kg s.c. daily to day 14): 0.00 ± 0.00
- Severity of Disease Sign Total ([2]; 0.5 mg/kg s.c. daily to day 14): 1.25 ± 0.53
- Severity of Disease Sign (1) subsynovial inflammation ([2]; 0.5 mg/kg s.c. daily to day 14): 0.62 ± 0.26
- Severity of Disease Sign (2) synovial hyperplasia ([2]; 0.5 mg/kg s.c. daily to day 14): 0.50 ± 0.27
- Severity of Disease Sign (3) pannus formation ([2]; 0.5 mg/kg s.c. daily to day 14): 0.00 ± 0.00
- Severity of Disease Sign (4) bone destruction ([2]; 0.5 mg/kg s.c. daily to day 14): 0.12 ± 0.12
- Severity of Disease Sign Total ([2]; 1 mg/kg s.c. daily to day 14): 1.14 ± 0.14
- Severity of Disease Sign (1) subsynovial inflammation ([2]; 1 mg/kg s.c. daily to day 14): 0.43 ± 0.20
- Severity of Disease Sign (2) synovial hyperplasia ([2]; 1 mg/kg s.c. daily to day 14): 0.71 ± 0.18
- Severity of Disease Sign (3) pannus formation ([2]; 1 mg/kg s.c. daily to day 14): 0.00 ± 0.00
- Severity of Disease Sign (4) bone destruction ([2]; 1 mg/kg s.c. daily to day 14): 0.00 ± 0.00
- reduction of the total histopathological score observed in control mice ([2]; even at the lowest dose of 0.1 mg/kg): more than 70%
- efficacy compared with results of Ratkay et al., 1994 ([2]; lowest dose 0.1 mg/kg): more effective than ten times that dose of indomethacin, forty times that dose of cyclosporin
- activity at 1 µM [3, 7]: 97.9 ± 0.2%
- activity at 10 µM [3, 7]: 83.5 ± 8.7%
- activity at 100 µM [3, 7]: 47.1 ± 13.6%
- activity at 1 µM [3, 8]: 99 ± 5.6%
- activity at 10 µM [3, 8]: 87.9 ± 5.5%
- activity at 100 µM [3, 8]: 48.9 ± 10.8%
- inhibition at 100 µM ([3]; read-out: inhibition of respiratory burst): > 50%
- Kd [4]: 5.6 nM

SMILES: C[C@]12C=CC(=O)C=C1CC[C@@H]1[C@@H]2C(=O)C[C@@]2(C)[C@H]1CC[C@]2(O)C(=O)CO [Prednisone, prednisone]
- activity at 1000 µM [3, 9]: 67 ± 11.6%
- activity at 1000 µM [3, 10]: 62.5 ± 8.1%
- activity at 100 µM [3, 11]: 102 ± 4.9%
- activity at 100 µM [3, 12]: 88.8 ± 7.2%

SMILES: CCN(CC)C(=O)C(C)Cc1cc(-c2ccccc2)nc2ccccc12 (single isomer, unassigned) [PK-14067, 1-N,N-diethyl-a-methyl-2-phenylquinoline-4-propranamide]
- Ki [5]: 44 nM

SMILES: Nc1ccc(S(=O)(=O)c2ccc(N)cc2)cc1 [Dapsone, dapsone]
- activity at 100 µM [3, 11]: 90.3 ± 6.2%
- activity at 100 µM [3, 12]: 73.6 ± 4.6%
- activity at 10 µM ([3]; 10^-5 M, after opsonized zymosan, read-out: Respiratory burst, Percent of Control (± S.E.), substance given After OZ): 96.4 ± 1.6%
- activity at 10 µM [3, 13]: 94.7 ± 1.3%

SMILES: COc1ccc2c(c1)c(CC(=O)O)c(C)n2C(=O)c1ccc(Cl)cc1 [Indomethacin, indomethacin]
- activity at 1000 µM [3, 9]: 64.8 ± 9.4%
- activity at 1000 µM [3, 10]: 36 ± 12.5%
- activity at 100 µM [3, 11]: 101 ± 2.1%
- activity at 100 µM [3, 12]: 86.3 ± 10.9%
- activity at 10 µM [3, 13]: 101 ± 3.5%

SMILES: CN1C(=O)CN=C(c2ccc(Cl)cc2)c2cc(Cl)ccc21 [Ro 5-4864, 4'-chlorodiazepam]
- Ki [5]: 178 nM
- high affinity binding to Alzheimer versus neurologically normal brain tissue [6]: greater high affinity binding to Alzheimer brain tissue than to neurologically normal brain tissue
- activity at 1 µM [3, 8]: 94.6 ± 12.2%
- activity at 10 µM [3, 8]: 85.4 ± 2.5%
- activity at 100 µM [3, 8]: 74.7 ± 1.9%
